Reference: article PMC11601618 (bioRxiv, 2024)
Each block holds one molecule with its values, some of them ahead of it.

Legend:
[1] = target: T1, chicken BEST1 (bestrophin 1) (Gallus gallus, UniProt A0A8V0ZZU7); assay: cryo-EM structure with […] GABA; type: biochemical
T1 sequence (A0A8V0ZZU7 1-405): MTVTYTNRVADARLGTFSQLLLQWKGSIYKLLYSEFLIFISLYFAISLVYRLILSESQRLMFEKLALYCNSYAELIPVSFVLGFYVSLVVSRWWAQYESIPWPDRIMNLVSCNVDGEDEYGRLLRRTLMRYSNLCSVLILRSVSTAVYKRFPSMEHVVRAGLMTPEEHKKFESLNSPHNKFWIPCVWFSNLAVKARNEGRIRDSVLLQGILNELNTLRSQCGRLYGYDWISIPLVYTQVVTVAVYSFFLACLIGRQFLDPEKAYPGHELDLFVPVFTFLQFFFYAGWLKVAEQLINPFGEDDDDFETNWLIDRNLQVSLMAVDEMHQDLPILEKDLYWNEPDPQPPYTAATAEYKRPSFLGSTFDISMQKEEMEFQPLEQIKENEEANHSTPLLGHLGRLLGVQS

cryo-EM structure = target: the molecule itself; assay: cryo-EM structure

- EC50 [1]: ~2 mM
Molecule: NCCCC(=O)O [GABA]

B1: human BEST1 (spanning amino acids 1-398) (domain or fragment, UniProt O76090 1-398, looked up)
chain: MTITYTSQVANARLGSFSRLLLCWRGSIYKLLYGEFLIFLLCYYIIRFIYRLALTEEQQLMFEKLTLYCDSYIQLIPISFVLGFYVTLVVTRWWNQYENLPWPDRLMSLVSGFVEGKDEQGRLLRRTLIRYANLGNVLILRSVSTAVYKRFPSAQHLVQAGFMTPAEHKQLEKLSLPHNMFWVPWVWFANLSMKAWLGGRIRDPILLQSLLNEMNTLRTQCGHLYAYDWISIPLVYTQVVTVAVYSFFLTCLVGRQFLNPAKAYPGHELDLVVPVFTFLQFFFYVGWLKVAEQLINPFGEDDDDFETNWIVDRNLQVSLLAVDEMHQDLPRMEPDMYWNKPEPQPPYTAASAQFRRASFMGSTFNISLNKEEMEFQPNQEDEEDAHAGIIGRFLGLQS
- stoichiometry N (cryo-EM structure): 5
